Patent publication US9399649B2, “Compounds for treating spinal muscular atrophy” (PTC Therapeutics Inc., priority 2012, dated 2016)

Assays:
[1] = tested on: Smn protein; experiment: Smn protein assay in cultured cells (SMN HTRF); type: cell-based, human; settings: SMA patient fibroblast cells (GM03813), 48 hours; for EC1.5x for Smn protein expression: 7-point concentration curve, concentration producing 1.5 times Smn protein vs DMSO vehicle; for maximum fold (Fold) increase of Smn protein: 7-point concentration data, relative to vehicle control
Description: The SMN HTRF (homogeneous time resolved fluorescence) assay is used to quantify the level of Smn protein in SMA patient fibroblast cells treated with test compounds.
Cells are thawed and cultured in DMEM-10% FBS for 72 hours. Cells are trypsinized, counted and re-suspended to a concentration of 25,000 cells/mL in DMEM-10% FBS. The cell suspensions are plated at 5,000 cells per well in a 96 well microtiter plate and incubated for 3 to 5 hours. […] Test compounds are serially diluted 3.16-fold in 100% DMSO to generate a 7-point concentration curve. 1 μL of test compound solution is transferred to cell-containing wells and cells are incubated for 48 hours in a cell culture incubator (37° C., 5% CO2, 100% relative humidity). Triplicate samples are set up for each test compound concentration. After 48 hours, the supernatant is removed from the wells and 25 μL of the RIPA lysis buffer, containing protease inhibitors, is added to the wells and incubated with shaking at room temperature for 1 hour. 25 μL of the diluent is added and then 35 μL of the resulting lysate is transferred to a 384-well plate, where each well contains 5 μL of the antibody solution (1:100 dilution of anti-SMN d2 and anti-SMN kryptate in SMN reconstitution buffer). The plate is centrifuged for 1 minute to bring the solution to the bottom of the wells, then incubated overnight at room temperature. Fluorescence for each well of the plate at 665 nm and 620 nm is measured on an EnVision multilabel plate reader (Perkin-Elmer).
The normalized fluorescence signal is calculated for each sample, Blank and vehicle control well by dividing the signal at 665 nm by the signal at 620 nm. Normalizing the signal accounts for possible fluorescence quenching due to the matrix effect of the lysate. The ΔF value (a measurement of Smn protein abundance as a percent value) for each sample well is calculated by subtracting the normalized average fluorescence for the Blank control wells from the normalized fluorescence for each sample well, then dividing this difference by the normalized average fluorescence for the Blank control wells and multiplying the resulting value by 100. The ΔF value for each sample well represents the Smn protein abundance from test compound-treated samples. The ΔF value for each sample well is divided by the ΔF value for the vehicle control wells to calculate the fold increase in Smn protein abundance relative to the vehicle control.

[2] = tested on: full length SMN2 minigene mRNA containing SMN2 exon 7; experiment: SMN2 minigene mRNA splicing RT-qPCR assay in cultured cells; type: cell-based, human; settings: Homo sapiens, HEK293-H; HEK293H cells stably transfected with SMN2-A minigene, 24 hours, 7-point concentration curve; concentration giving 1.5-fold full length SMN2 mRNA vs vehicle; read-out: EC1.5x for production of full length SMN2 mRNA
Description: The reverse transcription-quantitative PCR-based (RT-qPCR) assay is used to quantify the level of the full length SMN2 minigene mRNA containing SMN2 exon 7 in a HEK293H cell line stably transfected with said minigene and treated with a test compound.
HEK293H cells stably transfected with the SMN2-A minigene construct described above (10,000 cells/well) are seeded in 200 ut, of cell culture medium (DMEM plus 10% FBS, with 200 μg/mL hygromycin) in 96-well flat-bottom plates and the plate is immediately swirled to ensure proper dispersal of cells, forming an even monolayer of cells. Cells are allowed to attach for at least 4-6 hours. Test compounds are serially diluted 3.16-fold in 100% DMSO to generate a 7-point concentration curve. A solution of test compound (1 μL, 200× in DMSO) is added to each cell-containing well and the plate is incubated for 24 hours in a cell culture incubator (37° C., 5% CO2, 100% relative humidity). 2 replicates are prepared for each test compound concentration. The cells are then lysed in Cells-To-Ct lysis buffer and the lysate is stored at −80° C.
Primer SMN Forward A (SEQ ID NO. 1) hybridizes to a nucleotide sequence in exon 7 (nucleotide 22 to nucleotide 40), primer SMN Reverse A (SEQ ID NO. 2) hybridizes to a nucleotide sequence in the coding sequence of Firefly luciferase, SMN Probe A (SEQ ID NO. 3) hybridizes to a nucleotide sequence in exon 7 (nucleotide 50 to nucleotide 54) and exon 8 (nucleotide 1 to nucleotide 21). The combination of these three oligonucleotides detects only SMN1 or SMN2 minigenes (RT-qPCR) and will not detect endogenous SMN1 or SMN2 genes.
The SMN forward and reverse primers are used at final concentrations of 0.4 μM. The SMN probe is used at a final concentration of 0.15 μM. The GAPDH primers are used at final concentrations of 0.2 μM and the probe at 0.15 μM.
The SMN2-minigene GAPDH mix (15 μL total volume) is prepared by combining 7.5 μL of 2×RT-PCR buffer, 0.4 μL of 25×RT-PCR enzyme mix, 0.75 μL of 20×GAPDH primer-probe mix, 4.0075 μL of water, 2 μL of 10-fold diluted cell lysate, 0.06 μL of 100 μM SMN forward primer, 0.06 μL of 100 μM SMN reverse primer, and 0.225 μL of 100 μM SMN probe.
PCR is carried out at the following temperatures for the indicated time: Step 1: 48° C. (15 min); Step 2: 95° C. (10 min); Step 3: 95° C. (15 sec); Step 4: 60° C. (1 min); then repeat Steps 3 and 4 for a total of 40 cycles.
Each reaction mixture contains both SMN2-A minigene and GAPDH primersprobe sets (multiplex design), allowing simultaneous measurement of the levels of two transcripts.
Two SMN spliced products are generated from the SMN2 minigene. The first spliced product containing exon 7, corresponding to full length SMN2 mRNA, is referred to herein using the term “SMN2 minigene FL.” The second spliced product lacking exon 7 is referred to herein using the term “SMN2 minigene Δ7.”
The increase of SMN2 minigene FL mRNA relative to that in cells treated with vehicle control is determined from real-time PCR data using a modified ΔΔCt method (as described in Livak and Schmittgen, Methods, 2001, 25:402-8). The amplification efficiency (E) is calculated from the slope of the amplification curve for SMN2 minigene FL and GAPDH individually. The abundances of SMN2 minigene FL and GAPDH are then calculated as (1+E)^−Ct, where Ct is the threshold value for each amplicon. The abundance of SMN2 minigene FL is normalized to GAPDH abundance. The normalized SMN2 minigene FL abundance from test compound-treated samples is then divided by normalized SMN2 minigene FL abundance from vehicle-treated cells to determine the level of SMN2 FL mRNA relative to vehicle control.

Row | SMILES | EC1.5x for Smn protein expression [1] | maximum fold (Fold) increase of Smn protein [1] | melting point [°C] | EC (1.5-fold) [2] [µM]
1 | Cc1nc(Cl)cn2cc(-c3cc4ccc(N5C[C@@H](C)N[C@@H](C)C5)cc4c(=O)o3)nc12 [Cpd 110, 3-(6-chloro-8-methylimidazo[1,2-a]pyrazin-2-yl)-7-[(3R,5S)-3,5-dimethylpiperazin-1-yl]-1H-isochromen-1-one] | *** (an EC1.5× between >0.3 nM and ≦1 nM is indicated by three stars (***)) | **** (a fold increase between >1.5 and ≦1.65 is indicated by four stars (****)) | 261 to 266 | 0.3 to 1
2 | CCN1CCN(c2ccc3cc(-c4cn5cc(C)nc(C)c5n4)oc(=O)c3c2)C[C@H]1C [Cpd 140, 3-(6,8-dimethylimidazo[1,2-a]pyrazin-2-yl)-7-[(3R)-4-ethyl-3-methylpiperazin-1-yl]-1H-isochromen-1-one] | **** (an EC1.5×≦0.3 nM is indicated by four stars (****)) | ***** (a fold increase >1.65 is indicated by five stars (*****)) | 243 to 246 | ≤ 0.1
3 | CCN1CCN(c2ccc3cc(-c4cc5c(C)nc(C)cn5c4)oc(=O)c3c2)CC1 [Cpd 77, 3-(1,3-dimethylpyrrolo[1,2-a]pyrazin-7-yl)-7-(4-ethylpiperazin-1-yl)-1H-isochromen-1-one] | *** (an EC1.5× between >0.3 nM and ≦1 nM is indicated by three stars (***)) | *** (a fold increase between >1.35 and ≦1.5 is indicated by three stars (***)) | 202 to 204 | ≤ 0.1
4 | COc1ccc(-c2cc3ccc(N4CCN[C@@H](C)C4)cc3c(=O)o2)cc1 [Cpd 31, 3-(4-methoxyphenyl)-7-[(3S)-3-methylpiperazin-1-yl]-1H-isochromen-1-one] | ** (an EC1.5× between >1 μM, and ≦3 nM is indicated by two stars (**)) | **** (a fold increase between >1.5 and ≦1.65 is indicated by four stars (****)) | 129 to 131 | ≤ 0.1
5 | CCCN1CCN(c2ccc3cc(-c4cn5cc(C)nc(C)c5n4)oc(=O)c3c2)C[C@H]1C [Cpd 141, 3-(6,8-dimethylimidazo[1,2-a]pyrazin-2-yl)-7-[(3R)-3-methyl-4-propylpiperazin-1-yl]-1H-isochromen-1-one] | **** (an EC1.5×≦0.3 nM is indicated by four stars (****)) | ***** (a fold increase >1.65 is indicated by five stars (*****)) | 251 to 256 | ≤ 0.1
6 | Cc1cn2cc(-c3cc4ccc(N5CCN(C)[C@@H](C)C5)cc4c(=O)o3)nc2cn1 [Cpd 121, 7-[(3S)-3,4-dimethylpiperazin-1-yl]-3-(6-methylimidazo[1,2-a]pyrazin-2-yl)-1H-isochromen-1-one] | **** (an EC1.5×≦0.3 nM is indicated by four stars (****)) | ***** (a fold increase >1.65 is indicated by five stars (*****)) | 250 to 255 | ≤ 0.1
7 | Cc1cn2cc(-c3cc4ccc(N5CCN(CCO)CC5)cc4c(=O)o3)nc2c(C)n1 [Cpd 75, 3-(6,8-dimethylimidazo[1,2-a]pyrazin-2-yl)-7-[4-(2-hydroxyethyl)piperazin-1-yl]-1H-isochromen-1-one] | *** (an EC1.5× between >0.3 nM and ≦1 nM is indicated by three stars (***)) | ***** (a fold increase >1.65 is indicated by five stars (*****)) | 248 to 250 | ≤ 0.1
8 | Cc1cn2cc(-c3cc4ccc(C5=CCN(C6COC6)CC5)cc4c(=O)o3)nc2c(C)n1 [Cpd 98, 3-(6,8-dimethylimidazo[1,2-a]pyrazin-2-yl)-7-[1-(oxetan-3-yl)-1,2,3,6-tetrahydropyridin-4-yl]-1H-isochromen-1-one] | *** (an EC1.5× between >0.3 nM and ≦1 nM is indicated by three stars (***)) | ***** (a fold increase >1.65 is indicated by five stars (*****)) | 253 to 255 | ≤ 0.1
9 | COc1ccc(-c2cc3ccc(N4C[C@@H](C)N[C@@H](C)C4)cc3c(=O)o2)cc1 [Cpd 29, 7-[(3R,5S)-3,5-dimethylpiperazin-1-yl]-3-(4-methoxyphenyl)-1H-isochromen-1-one] | – | * (A maximum fold increase of ≦1.2 is indicated by one star (*)) | 109 to 110 | 0.3 to 1
10 | Cc1cn2cc(-c3cc4ccc(C5CCN(C)CC5)cc4c(=O)o3)nc2c(C)n1 [Cpd 114, 3-(6,8-dimethylimidazo[1,2-a]pyrazin-2-yl)-7-(1-methylpiperidin-4-yl)-1H-isochromen-1-one] | **** (an EC1.5×≦0.3 nM is indicated by four stars (****)) | ***** (a fold increase >1.65 is indicated by five stars (*****)) | 248 to 250 | ≤ 0.1
11 | CCCN1CC=C(c2ccc3cc(-c4cn5cc(C)nc(C)c5n4)oc(=O)c3c2)CC1 [Cpd 95, 3-(6,8-dimethylimidazo[1,2-a]pyrazin-2-yl)-7-(1-propyl-1,2,3,6-tetrahydropyridin-4-yl)-1H-isochromen-1-one] | **** (an EC1.5×≦0.3 nM is indicated by four stars (****)) | ***** (a fold increase >1.65 is indicated by five stars (*****)) | 226 to 228 | ≤ 0.1
